{"source": "patent US20200323888A1", "about": "“INHIBITORS” (VESTLANDETS INNOVASJONSSELSKAP AS, priority 2017, published 2020)", "key": {"NatB": {"molecular_target": "NatB (Homo sapiens, UniProt P61599)", "sequence (P61599 whole entry)": "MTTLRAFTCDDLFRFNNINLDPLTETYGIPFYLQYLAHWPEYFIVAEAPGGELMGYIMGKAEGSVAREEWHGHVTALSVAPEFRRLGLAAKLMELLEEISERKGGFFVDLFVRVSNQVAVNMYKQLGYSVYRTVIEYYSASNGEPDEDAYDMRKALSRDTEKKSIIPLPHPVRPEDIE", "sequence (Q14CX7 whole entry partner)": "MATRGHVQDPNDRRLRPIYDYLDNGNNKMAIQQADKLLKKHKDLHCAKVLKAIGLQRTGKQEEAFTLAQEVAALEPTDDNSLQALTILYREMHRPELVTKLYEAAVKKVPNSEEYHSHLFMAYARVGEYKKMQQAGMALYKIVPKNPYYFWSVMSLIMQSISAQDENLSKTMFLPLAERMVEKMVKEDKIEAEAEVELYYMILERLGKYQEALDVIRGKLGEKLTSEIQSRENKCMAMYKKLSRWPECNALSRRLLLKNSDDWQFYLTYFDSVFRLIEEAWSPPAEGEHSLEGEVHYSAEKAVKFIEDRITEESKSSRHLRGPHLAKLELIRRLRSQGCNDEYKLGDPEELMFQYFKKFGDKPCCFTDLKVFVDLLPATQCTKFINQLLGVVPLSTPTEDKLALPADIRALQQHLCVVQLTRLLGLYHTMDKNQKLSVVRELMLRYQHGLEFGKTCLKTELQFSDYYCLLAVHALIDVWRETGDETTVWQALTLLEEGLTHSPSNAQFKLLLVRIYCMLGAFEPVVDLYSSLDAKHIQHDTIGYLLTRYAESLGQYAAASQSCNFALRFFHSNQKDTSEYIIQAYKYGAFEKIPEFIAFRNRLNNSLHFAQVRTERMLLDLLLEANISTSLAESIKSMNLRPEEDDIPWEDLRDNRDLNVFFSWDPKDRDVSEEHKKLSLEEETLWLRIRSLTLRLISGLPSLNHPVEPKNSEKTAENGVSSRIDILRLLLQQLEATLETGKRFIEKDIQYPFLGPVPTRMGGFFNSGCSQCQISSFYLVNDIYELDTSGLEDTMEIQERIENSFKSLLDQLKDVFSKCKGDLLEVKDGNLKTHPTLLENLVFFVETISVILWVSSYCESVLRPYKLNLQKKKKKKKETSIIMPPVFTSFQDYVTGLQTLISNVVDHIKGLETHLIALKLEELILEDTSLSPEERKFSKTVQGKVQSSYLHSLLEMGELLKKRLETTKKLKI", "assay": "Nt-acetylation inhibitor assay, immunoprecipitated NatB complex, HPLC quantification", "assay_type": "biochemical", "set-up": "endogenous in cells", "conditions": "calculated from IC50 with Cheng-Prusoff equation", "description": "(§1) The IC50 values for these compounds were tested as described in Foyn H, et al. (2013) “Design, Synthesis, and Kinetic Characterization of Protein N-Terminal Acetyltransferase Inhibitors”. ACS Chem Biol 8:1121-1127; and Foyn H, et al. (2017) “DTNB-Based quantification of in vitro enzymatic N-terminal acetyltransferase activity”, Methods Mol. Biol. 1574:9-15. Briefly, a colorimetric acetylation assay, 5,5′-dithiobis-(2-nitrobenzoic acid) (DTNB) assay was used to measure the catalytic activity of NATs after incubation with NAT inhibitors. […] Therefore, NTB- was quantified by measuring the absorbance at 412 nm and indirectly measures peptide Nt-acetylation. […] In order to measure CoA production, 2 mM DTNB (dissolved in 100 mM sodium phosphate dibasic pH 6.8 and 10 mM EDTA) was added to the quenched reaction and the absorbance at 412 nm was measured with a spectrophotometer (Epoc). Background absorbance (determined in negative controls) was subtracted from the absorbance determined in each individual reaction. Thiophenolate production was quantified assuming ε=13.7×103 M−1 cm−1. […] A similar Nt-acetylation reaction was performed as previously described and the enzymatic activity was quenched with a final concentration of 1% TFA and analyzed by HPLC (Evjenth R, Van Damme P, Gevaert K, Arnesen T (2013) HPLC-based Quantification of in vitro N-terminal Acetylation. Methods Mol Biol 981:95-102.). […]"}, "Naa30": {"molecular_target": "T1, Naa30 (Homo sapiens, UniProt Q147X3)", "T1 sequence (Q147X3 1-362)": "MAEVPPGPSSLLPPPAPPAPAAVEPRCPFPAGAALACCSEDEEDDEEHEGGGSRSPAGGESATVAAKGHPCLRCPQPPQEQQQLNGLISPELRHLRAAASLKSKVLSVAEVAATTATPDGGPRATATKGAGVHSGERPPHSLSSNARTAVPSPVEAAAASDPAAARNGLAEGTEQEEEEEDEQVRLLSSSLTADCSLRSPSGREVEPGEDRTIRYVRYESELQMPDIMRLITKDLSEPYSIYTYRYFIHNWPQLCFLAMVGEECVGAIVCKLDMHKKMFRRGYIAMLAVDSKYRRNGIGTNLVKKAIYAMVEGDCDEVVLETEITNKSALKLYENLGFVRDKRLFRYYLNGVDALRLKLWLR", "assay": "Nt-acetylation inhibitor assay (DTNB), Naa30", "assay_type": "biochemical", "conditions": "calculated from IC50 with Cheng-Prusoff equation", "description": "as §1"}, "Naa60": {"molecular_target": "Naa60 (Homo sapiens, UniProt Q9H7X0)", "sequence (Q9H7X0 whole entry, looked up)": "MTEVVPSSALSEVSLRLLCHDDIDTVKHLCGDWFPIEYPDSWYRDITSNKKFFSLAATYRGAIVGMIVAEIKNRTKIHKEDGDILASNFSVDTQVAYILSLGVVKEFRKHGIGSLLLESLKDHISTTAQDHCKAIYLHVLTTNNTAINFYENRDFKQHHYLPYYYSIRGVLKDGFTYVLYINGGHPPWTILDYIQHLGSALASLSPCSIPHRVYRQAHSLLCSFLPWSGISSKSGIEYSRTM", "assay": "Nt-acetylation inhibitor assay (DTNB), Naa60", "assay_type": "biochemical", "conditions": "calculated from IC50 with Cheng-Prusoff equation", "description": "as §1"}, "Naa40": {"molecular_target": "Naa40 (Homo sapiens, UniProt Q86UY6)", "assay": "Nt-acetylation inhibitor assay (DTNB), Naa40", "assay_type": "biochemical", "conditions": "calculated from IC50 with Cheng-Prusoff equation", "description": "as §1"}, "Naa50": {"molecular_target": "T2, Naa50 (Homo sapiens, UniProt Q9GZZ1)", "T2 sequence (Q9GZZ1 1-169)": "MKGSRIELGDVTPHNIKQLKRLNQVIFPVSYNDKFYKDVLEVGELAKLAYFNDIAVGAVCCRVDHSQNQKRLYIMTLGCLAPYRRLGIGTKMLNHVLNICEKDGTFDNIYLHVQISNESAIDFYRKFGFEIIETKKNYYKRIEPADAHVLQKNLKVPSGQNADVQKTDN", "assay": "Nt-acetylation inhibitor assay (DTNB), Naa50", "assay_type": "biochemical", "conditions": "calculated from IC50 with Cheng-Prusoff equation", "description": "as §1"}, "zebrafish embryos": {"system": "zebrafish embryos", "assay": "Phenotype after injection into zebrafish embryos", "assay_type": "in vivo", "conditions": "injected into zebrafish embryos; compared with reference inhibitor", "source_text": "A norleucine (Nle) residue was therefore tried in place of methionine in order to try to circumvent the synthesis problem."}, "Naa10": {"molecular_target": "T3, Naa10 (Homo sapiens, UniProt P41227)", "T3 sequence (P41227 1-235)": "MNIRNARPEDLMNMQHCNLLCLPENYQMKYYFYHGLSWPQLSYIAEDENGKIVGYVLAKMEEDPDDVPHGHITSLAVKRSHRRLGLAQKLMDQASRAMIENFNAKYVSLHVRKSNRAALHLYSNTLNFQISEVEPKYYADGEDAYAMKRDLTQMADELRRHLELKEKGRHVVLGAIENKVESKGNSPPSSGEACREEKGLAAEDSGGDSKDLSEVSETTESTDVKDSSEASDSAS", "assay": "Nt-acetylation inhibitor assay (DTNB), Naa10", "assay_type": "biochemical", "conditions": "Naa10; calculated from IC50 with Cheng-Prusoff equation", "description": "as §1"}, "NatA": {"molecular_target": "T4, NatA (Homo sapiens, UniProt P41227)", "T4 construct": "endogenous in cells", "T4 sequence (P41227 1-235)": "T3 sequence (P41227 1-235)", "T4 sequence (Q9BXJ9 1-866 partner)": "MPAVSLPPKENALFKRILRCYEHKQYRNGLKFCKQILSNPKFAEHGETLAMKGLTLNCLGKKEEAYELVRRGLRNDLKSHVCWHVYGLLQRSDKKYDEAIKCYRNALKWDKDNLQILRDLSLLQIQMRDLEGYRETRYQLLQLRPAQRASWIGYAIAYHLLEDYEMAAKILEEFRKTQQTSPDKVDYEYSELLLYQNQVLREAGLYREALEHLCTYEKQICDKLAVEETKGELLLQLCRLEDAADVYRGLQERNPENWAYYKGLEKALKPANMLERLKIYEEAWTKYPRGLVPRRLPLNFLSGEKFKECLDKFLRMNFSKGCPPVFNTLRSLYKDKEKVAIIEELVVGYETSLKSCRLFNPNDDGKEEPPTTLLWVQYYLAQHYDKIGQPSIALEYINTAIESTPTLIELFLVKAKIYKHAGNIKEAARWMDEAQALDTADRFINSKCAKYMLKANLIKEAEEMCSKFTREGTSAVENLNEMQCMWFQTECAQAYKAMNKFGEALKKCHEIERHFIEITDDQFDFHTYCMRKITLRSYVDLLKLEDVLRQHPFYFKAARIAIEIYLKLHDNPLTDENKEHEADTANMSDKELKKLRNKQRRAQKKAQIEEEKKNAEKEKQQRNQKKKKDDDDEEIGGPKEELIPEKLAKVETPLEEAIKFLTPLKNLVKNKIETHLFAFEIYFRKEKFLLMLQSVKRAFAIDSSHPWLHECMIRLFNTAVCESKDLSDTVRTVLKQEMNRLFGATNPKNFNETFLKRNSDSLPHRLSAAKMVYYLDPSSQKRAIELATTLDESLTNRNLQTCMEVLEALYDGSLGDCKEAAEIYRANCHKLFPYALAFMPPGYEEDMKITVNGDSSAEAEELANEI", "assay": "Nt-acetylation inhibitor assay, immunoprecipitated NatA complex, HPLC quantification", "assay_type": "biochemical", "description": "The IC50 values for these compounds were tested as described in Foyn H, et al. (2013) “Design, Synthesis, and Kinetic Characterization of Protein N-Terminal Acetyltransferase Inhibitors”. ACS Chem Biol 8:1121-1127; and Foyn H, et al. (2017) “DTNB-Based quantification of in vitro enzymatic N-terminal acetyltransferase activity”, Methods Mol. Biol. 1574:9-15. Briefly, a colorimetric acetylation assay, 5,5′-dithiobis-(2-nitrobenzoic acid) (DTNB) assay was used to measure the catalytic activity of NATs after incubation with NAT inhibitors. In the DTNB assay, thiols present in the enzymatic product, CoA, cleaves DTNB and produces 2-nitro-5-thiobenzoate (NTB-), which absorbs light with a wavelength of 412 nm. NTB- forms in a 1:1 molar ratio to the thiol groups present in the sample. Therefore, NTB- was quantified by measuring the absorbance at 412 nm and indirectly measures peptide Nt-acetylation. Recombinant purified NAT enzyme was mixed with different substrate peptides (300 uM, custom-made) and Ac-CoA (300 uM) in acetylation buffer (50 mM Tris/HEPES pH 8.5-7.4, 100 mM NaCl, 10% glycerol and 0.2 mM EDTA) and with inhibitor concentration (0-500 uM). After 30 min-60 min incubation at 37° C., the enzyme activity was quenched with quenching buffer (3.2 M guanidinium-HCl, 100 mM sodium phosphate dibasic pH 6.8). Triplicates were run for all positive samples, while negative controls were duplicated. As a negative control, reactions without enzyme were incubated at 37° C. before the reaction was quenched and added enzyme. In order to measure CoA production, 2 mM DTNB (dissolved in 100 mM sodium phosphate dibasic pH 6.8 and 10 mM EDTA) was added to the quenched reaction and the absorbance at 412 nm was measured with a spectrophotometer (Epoc). Background absorbance (determined in negative controls) was subtracted from the absorbance determined in each individual reaction. Thiophenolate production was quantified assuming ε=13.7×103 M−1 cm−1. […] A similar Nt-acetylation reaction was performed as previously described and the enzymatic activity was quenched with a final concentration of 1% TFA and analyzed by HPLC (Evjenth R, Van Damme P, Gevaert K, Arnesen T (2013) HPLC-based Quantification of in vitro N-terminal Acetylation. Methods Mol Biol 981:95-102.).\nIn order to ensure selectivity towards NatA, the CoA-Ac-SSNIeP (SEQ ID NO: 4) was tested against other NATs. Using the Cheng-Prusoff equation for competitive inhibitors, the dissociation constant, Ki, was calculated from IC50 values and [S]/Km ratios for all the NATs."}}}
{"molecule": "CCCC[C@H](NC(=O)[C@H](CO)NC(=O)[C@H](CO)NC(=O)CSCCNC(=O)CCNC(=O)C(O)C(C)(C)COP(=O)(O)OP(=O)(O)OCC1OC(n2cnc3c(N)ncnc32)C(O)C1OP(=O)(O)O)C(=O)N1CCC[C@H]1C(N)=O", "note": "(stereo partly shown) [CoA-Ac-SS(Nle)P]", "values": [{"measurement": "Ki", "setting": "NatB", "result": "41.6 ± 51.2", "unit": "µM"}, {"measurement": "Ki", "setting": "Naa30", "result": 132, "unit": "µM"}, {"measurement": "Ki", "setting": "Naa60", "result": "3.1 ± 0.8", "unit": "µM"}, {"measurement": "Ki", "setting": "Naa40", "result": "41.9 ± 6.4", "unit": "µM"}, {"measurement": "Ki", "setting": "Naa50", "result": "17.7 ± 7.4", "unit": "µM"}, {"measurement": "phenotype in zebrafish", "setting": "zebrafish embryos", "result": "same phenotype in zebrafish as SSMP"}, {"measurement": "Ki", "setting": "Naa10", "result": 98.9, "unit": "µM"}, {"measurement": "Ki", "setting": "NatA; NatA, calculated from IC50 with Cheng-Prusoff equation", "result": "143 ± 30", "unit": "nM"}, {"measurement": "IC50", "setting": "NatA; inhibitors tested against NatA, all compounds with C-terminal amide", "result": "1460 ± 290", "unit": "nM"}, {"measurement": "more potent towards NatA than all the other NATs tested", "setting": "NatA; selectivity from Ki values of Table 2", "result": "at least 100 fold"}]}
